The values that follow are results of earlier work, collected in patent US20230165842A1, “NEW USES” (priority 2020, published 2023).

One data set relates to COVID-19 cases. As to conditions: conclusion for the named statins.
The test system of data set [1] is adults with confirmed SARS-CoV-2 infection.
Data set [2] has as its system hospitalised Covid-19 patients.
In data set [3] the test system is dysgeusia in COVID positive patients.
The subject of data set [4] is SARS-CoV-2 Spike pseudotyped virus. The settings on record: ACE2h HEK293T cells; Control = 1.
Data set [5] deals with SARS-CoV-2.
For data set [6], the system named is COVID-19-induced pulmonary fibrosis.
Data set [7] relates to SARS-CoV-2. The settings on record: Vero E6.
Data set [8] concerns SARS-CoV-2. As to conditions: Calu-3.
Data set [9] relates to SARS-CoV-2. The settings on record: Vero E6; for pIC50: 2 h pre-treatment, 24 h.
The subject of a further data set is Vero E6 cells. The settings on record: Vero E6.
In data set [10] the test system is SARS-CoV-2. Also on record: Reducing Viral propagation: concentration or dose not given beside the values. As to conditions: Vero E6; MOI=0.0005.
Data set [11] relates to OC43. The settings on record: maximal across all concentrations.
For data set [12], the system named is OC43.
Data set [13] has as its system SARS-CoV-2. The source holds these as a separate data set.
Data set [14] deals with SARS-CoV-2. As to conditions: Vero cells; 2 h pre-treatment; vs DMSO control; p<0.0001.
Data set [15] relates to SARS-CoV-2. The settings on record: concentration dependent; data not shown.
[16] abbreviates: six weeks after initiation of therapy.

pIC50: −log10 of the molar value. Read-outs that look alike come from different tables or passages of the source.

`CC(C)c1c(C(=O)Nc2ccccc2)c(-c2ccccc2)c(-c2ccc(F)cc2)n1CC[C@@H](O)C[C@@H](O)CC(=O)O` [Compound 8, atorvastatin]: the “mortality in patients infected with COVID-19” value with COVID-19 cases is given as “may reduce mortality”.
Turning to `COCCCC/C(=N\OCCN)c1ccc(C(F)(F)F)cc1` [Compound 34, fluvoxamine], the “incidence of subsequent hospitalization” value with Covid positive patients (0 of 65, vs 12.5% with observation) is listed as 0%. Moreover, the “ongoing symptoms present at day 14” value in the data set with Covid positive patients (0 of 65, vs 60% with observation alone) is 0%. Besides, the serious adverse events entry with Covid positive patients (50 mg twice daily for 14 days) was “No serious adverse events”. Also, the “Respiratory Rate” value in the data set with Covid positive patients (Day 1, N = 65) is 17.7 ± 2.9. Moreover, in the data set with Covid positive patients (Day 7, N = 65), the “Respiratory Rate” value was 12.9 ± 1.6. Moreover, in the data set with Covid positive patients (N = 65), the “Hospitalized within 14 days (patients)” value is 0, the “ICU care and/or Death (patients)” value is 0, the “Symptoms at Day 14: 1-3 (patients)” value is listed as 0 and the “Symptoms at Day 14: 4-6 (patients)” value is 0. In the data set with Covid positive patients (N = 65), the “Symptoms at Day 14: None (patients)” value was 65 and the “Symptoms at Day 14: ≥7 (patients)” value was 0. In addition, the “adverse events leading to early discontinuation” value with Covid positive patients (human, in vivo) was “No adverse events led to early discontinuation”. Moreover, in [1] (fluvoxamine group, placebo 6), the “serious adverse event (number)” value was 1. Besides, the “other adverse events (number)” value in data set [1] (fluvoxamine group, placebo 12) was 11. Also, in [1] (fluvoxamine vs placebo), the “Absolute difference (95% CI), any nonzero value” was −8.3%; the “Absolute difference (95% CI), clinical deterioration” value is on record as 8.7%; the “Absolute difference (95% CI), clinical status 0 (none)” value was 8.3%; the “Absolute difference (95% CI), clinical status mean” value is −0.22. Besides, in [1] (n = 80), the “Clinical status on 7-point scale, mean (SD)” value is on record as 0; the “Clinical status on 7-point scale: 0 (none), No. (%)” value is recorded as 80 (100); the “Clinical status on 7-point scale: Any nonzero value, No. (%)” value is 0. In data set [1] (n = 80, 100 mg 3 times daily for 15 days), the “Primary end point Clinical deterioration (met both criteria), No. (%)” value is listed as 0.
Turning to `COc1cc(Nc2ncc(F)c(Nc3ccc4c(n3)N(COP(=O)(O)O)C(=O)C(C)(C)O4)n2)cc(OC)c1OC` [Compound 35, fostamatinib], the “primary endpoint of safety” value in data set [2] (Phase II, oral twice-daily plus SOC for 14 days) was “met the primary endpoint of safety”. For the same molecule, in data set [2] (by day 15 and 29), the “improvement in clinical status” value is “superior to placebo”. Further, the “outcome of intubated patients on mechanical ventilation” value in data set [2] (two patients receiving drug) was “improved in seven days and were off the ventilator”. Moreover, the “chances of occurrence of serious adverse events” value in data set [2] (vs placebo) was “halved”. Besides, the “number of days in the ICU” value in [2] (vs seven in the placebo group) is recorded as “three”. Besides, the deaths result in [2] (vs three deaths in the placebo arm) is “No deaths”.
Turning to `CC(C)c1nc(N(C)S(C)(=O)=O)nc(-c2ccc(F)cc2)c1/C=C/[C@@H](O)C[C@@H](O)CC(=O)O` [Compound 64, rosuvastatin], the “mortality in patients infected with COVID-19” value with COVID-19 cases is reported as “may reduce mortality”.
Consider `C[C@]12C=CC(=O)C=C1CC[C@H]1[C@@H]3C[C@@H](O)[C@](O)(C(=O)CO)[C@@]3(C)C[C@H](O)[C@@]12F` [Compound 72, triamcinolone], for which, in [3] (Cases (n = 60), day 5), the “bitter identified: NO (patients)” value is 7, the “bitter identified: YES (patients)” value was 53, the “salt identified: NO (patients)” value is listed as 10 and the “salt identified: YES (patients)” value is recorded as 50. For the same molecule, in [3] (Cases (n = 60), day 5), the “sour identified: NO (patients)” value was 10, the “sour identified: YES (patients)” value is 50, the “sweet identified: NO (patients)” value is reported as 5 and the “sweet identified: YES (patients)” value was 55. Moreover, in data set [3] (all anosmia and dysgeusia cases), the “recovery of sense of smell taste” value is listed as “recovered their sense of smell taste within a week”. Also, in data set [3] (oral paste, fifth day), the improved for bitter is 83.33%, the “improved for salty taste” value is reported as 83.33%, the “improved for sour taste” value is 83.34% and the improved for sweet is recorded as 91.67%.
Turning to `Clc1ccc2c(c1)CCc1cccnc1C2=C1CCNCC1` [Compound 80, desloratadine], in data set [4], the “pseudotype entry (mean)” value is 0.3.
Turning to `OCc1c[nH]c2ccccc12` [Compound 110, indole-3-carbinol], in the data set on SARS-CoV-2 [5] (16.67 and 5.56 μM), the “SARS-CoV-2-induced CPE” value is listed as “not affected”. Besides, the “reduced the SARS-CoV-2-induced CPE” value in the data set on SARS-CoV-2 [5] (Vero E6, 50 μM, 72 h post-infection, vs DMSO) is “about 60%”. In addition, the virus yield reduction with SARS-CoV-2 [5] (at the various concentrations tested) is on record as 2 to 4 log.
As to `COC(=O)c1ccc2c(c1)NC(=O)/C2=C(\Nc1ccc(N(C)C(=O)CN2CCN(C)CC2)cc1)c1ccccc1` [Compound 134, nintedanib], the “serum level of alanine aminotransferase (adverse event)” value in [6] (300 mg/day oral, managed with reduction to 200 mg/day) is “became elevated”. Further, the “Ground-glass opacities of the lung (CT)” value in data set [6] (FIG. 29-D) is recorded as “mildly attenuated without further progression of pulmonary fibrosis”. In addition, the “respiratory condition and exercise tolerance” value in data set [6] (after three months of rehabilitation with drug and tapering of prednisolone) is recorded as “improved”. Moreover, the other side effects entry in [6] (in vivo) is “No other side effects”. In [6] (setting [16]), the vital capacity is reported as 1.27 L and the “vital capacity per predicted” value is 61.7%.
On to `COc1cc([C@@H]2c3cc4c(cc3[C@@H](O[C@@H]3O[C@@H]5CO[C@@H](C)O[C@H]5[C@H](O)[C@H]3O)[C@H]3COC(=O)[C@H]23)OCO4)cc(OC)c1O` [Compound 137, etoposide], for which the “PaO2/FiO2 ratio improved, average” value in the data set with COVID-19 ARDS patients (11 patients, 50-150 mg/m^2) was 195%. In addition, in the data set with COVID-19 ARDS patients (of 11 patients), the “patients fully recovered and discharged home” value is listed as “Nine”; the “patients needed mechanical ventilation” value was “Three”. Moreover, the patients died result with COVID-19 ARDS patients (of 11 patients, thrombotic complications) is reported as “Two”.
In the case of `C[C@H]1[C@H](OC(=O)CCC(=O)O)O[C@@H]2O[C@@]3(C)CC[C@H]4[C@H](C)CC[C@@H]1[C@@]24OO3` [Compound 145, artesunate], the pIC50 in the data set with SARS-CoV-2 [7] was 4.28; with SARS-CoV-2 [8] it was 5.75. Also, the “Selectivity Index (SI)” value in the data set on SARS-CoV-2 [7] is more than 1.885; with SARS-CoV-2 [8], more than 56.82. For the same molecule, the CC50 in the data set with Vero E6 and in the data set on Calu-3 was more than 100 µM in each case.
Regarding `O=C1NCN(c2ccccc2)C12CCN(CCCC(c1ccc(F)cc1)c1ccc(F)cc1)CC2` [Compound 158, fluspirilene], the “Selectivity Index (SI)” value in the data set with SARS-CoV-2 [9] (MOI 0.004) was 9.61; in the data set with SARS-CoV-2 [9] (MOI 0.01), more than 5.71. Also, the values for the pIC50 in the data set with SARS-CoV-2 [9] (MOI 0.004) and in the data set on SARS-CoV-2 [9] (MOI 0.01) were 5.20 and 5.27, respectively. The CC50 in the data set on Vero E6 cells (listed as MOI 0.004) and in the data set on Vero E6 cells (listed as MOI 0.01) was 30.3 µM throughout.
In the case of `NC1(c2ccc(-c3nc4ccn5c(=O)[nH]nc5c4cc3-c3ccccc3)cc2)CCC1` [Compound 173, mk-2206], in the data set on SARS-CoV-2 [10], the negative logarithm of the IC50 (pIC50) is 7.05 and the “Reducing Viral propagation” value is given as 88%.
On to `CS(=O)(=O)CCNCc1ccc(-c2ccc3ncnc(Nc4ccc(OCc5cccc(F)c5)c(Cl)c4)c3c2)o1` [Compound 187, lapatinib], for which the “Max % Inhibition of Viral Killing” value in the data set on OC43 [11] was 63.99%. The OC43 viral replication entry in the data set with OC43 [12] is listed as “strongly inhibited”. Further, the SARS-CoV-2 viral replication entry in the data set on SARS-CoV-2 [13] is “strongly inhibited”. The toxicity entry in the data set with SARS-CoV-2 [13] (at doses readily achievable in human tissues, data not shown) is recorded as “without any toxicity”. The “inhibited SARS-CoV-2 replication” value with SARS-CoV-2 [13] (data not shown) is reported as “over 50,000 fold”.
Regarding `NCCCCNCCCN` [Reference Compound 2, spermidine], in the data set on SARS-CoV-2 [10], the pIC50 is 3.83 and the “Reducing Viral propagation” value is on record as 85%.
As to `O=C(Nc1ccc([N+](=O)[O-])cc1Cl)c1cc(Cl)ccc1O` [Reference Compound 3, niclosamide], in the data set on SARS-CoV-2 [10], the pIC50 was 4.77 and the “Reducing Viral propagation” value is reported as more than 99%.
For `COc1ccc2nc3cc(Cl)ccc3c(Nc3cc(CN4CCCC4)c(O)c(CN4CCCC4)c3)c2n1` [Reference Compound 4, pyronaridine], the pIC50 was 5.96 in the data set with SARS-CoV-2 [7] and 5.19 in the data set with SARS-CoV-2 [8]. Also, the “Selectivity Index (SI)” value with SARS-CoV-2 [7] is on record as 34.22; in the data set on SARS-CoV-2 [8], 6.718. Also, the CC50 in the data set with Vero E6 (Vero E6) is 37.1 µM; with Calu-3 (Calu-3) it was 43.1 µM.
For `CCN(CCO)CCCC(C)Nc1ccnc2cc(Cl)ccc12` (stereo not drawn) [Reference Compound 5, hydroxychloroquine], the pIC50 with SARS-CoV-2 [7] is 5.97; with SARS-CoV-2 [8], 3.99. Moreover, the “Selectivity Index (SI)” value is on record as more than 93.55 in the data set on SARS-CoV-2 [7] and more than 0.972 in the data set with SARS-CoV-2 [8]. For the same molecule, the “decrease in viral load” value in the data set with SARS-CoV-2 [14] is listed as 26.9 fold. The CC50 in the data set with Vero E6 (Vero E6) and with Calu-3 (Calu-3) was more than 100 µM in each case.
With `CC(=O)OCOC(=O)CN(CC(=O)OCOC(C)=O)c1ccccc1OCCOc1ccccc1N(CC(=O)OCOC(C)=O)CC(=O)OCOC(C)=O` [compound 15, BAPTA-AM], the “inhibition of SARS-CoV-2 replication” value in the data set with SARS-CoV-2 [15] is given as “significantly inhibit”.
As for `NCCOB(c1ccccc1)c1ccccc1` [compound 16], the “inhibition of SARS-CoV-2 replication” value in the data set with SARS-CoV-2 [15] is “significantly inhibit”.
With maraviroc [Compound 170], the “decrease in viral load” value with SARS-CoV-2 [14] is on record as 30.7 fold.
